Assay results taken from patent US9517241B2, “Amelioration of intestinal fibrosis and treatment of Crohn's disease” (THE REGENTS OF THE UNIVERSITY OF MICHIGAN, priority 2013, dated 2016).

Columns and labels:
Format in all cases: cell-based, human
MLCK gene expression = experiment: Matrix stiffness model: QRT-PCR of MLCK; conditions: high stiffness substrate, 1000 nM CARD-024
Experimental: (§1) Cells were plated at 30-40% confluence. To stimulate a fibrotic phenotype, Ccd-18co cells were serum-starved for 24 h prior to treatment with 1 ng/ml TGFβ or 1 ng/ml TGFβ and increasing doses of CARD-024 (10-1000 nM) for 48 h. Given ethanol was used to dilute CARD-024, ethanol was added to the untreated and TGFβ treated cells to a final concentration of 0.1%. For stiffness experiments, low-passage number Ccd-18co cells were seeded at 1×10^5 cells/ml on 6-well plates containing collagen-coated acrylamide gels corresponding to soft (4.3 kPa, 0.02% bisacrylamide) or stiff (28.1 kPa, 0.16%) matrices. Cells were allowed to attach to the matrix for 4 h and then the gels were transferred to new wells to avoid paracrine signaling from cells attached to the plastic well bottom. […]
(§2) RNA from Ccd-18co cells was extracted using the RNeasy kit (Qiagen, Valencia, Calif.). cDNA was generated by reverse transcription of 1 μg of total RNA using the Superscript First Strand RT kit (Invitrogen, Carlsbad, Calif.). Quantitative real-time PCR (qPCR) was performed for MLCK, IL-1β, PTGS2, ET-1, and GAPDH with the TaqMan gene expression assays (ABI, Foster City, Calif.) on a Bio-Rad iCycler real-time PCR system. […] Gene expression was normalized to GAPDH as the endogenous control, and fold-changes (RQ) relative to untreated controls were calculated using the […] (Livak and Schmittgen, 2001).

[1] = system: fibrogenic genes (col1A1, Fn1, MLCK, ET-1) in Ccd-18co colonic myofibroblasts; experiment: TGFβ-stimulated colonic myofibroblasts, fibrogenic gene expression; conditions: TGFβ1-stimulated Ccd-18co colonic myofibroblasts
Experimental: as §1, §2

[2] = system: αSMA protein expression in Ccd-18co cells; experiment: TGFβ-stimulated colonic myofibroblasts, αSMA protein expression (Western blot)
Experimental: Colonic human myofibroblast Ccd-18co cells (CRL-1459 from ATCC) were cultured in alpha-MEM (Invitrogen, Carlsbad, Calif.) supplemented with 10% fetal bovine serum and sub-cultured weekly.
Cells were plated at 30-40% confluence. To stimulate a fibrotic phenotype, Ccd-18co cells were serum-starved for 24 h prior to treatment with 1 ng/ml TGFβ or 1 ng/ml TGFβ and increasing doses of CARD-024 (10-1000 nM) for 48 h. Given ethanol was used to dilute CARD-024, ethanol was added to the untreated and TGFβ treated cells to a final concentration of 0.1%. […]
(§3) Total protein was separated by SDS polyacrylamide gel electrophoresis (Bio-Rad,) with prestained protein markers loaded for molecular mass determination (Invitrogen, Carlsbad, Calif.), and transferred to PVDF membranes (Amersham Biosciences, Piscataway, N.J.). Membranes were blocked in 5% milk/TBST solution for 1 h at room temperature or overnight at 4° C. α-smooth muscle actin was detected by incubating the membrane overnight at 4° C. with mouse anti-human monoclonal antibody (Sigma, St. Louis, Mo.) at 1:5000 dilution in 5% milk/TBST.
(§4) pFAK was detected using a rabbit polyclonal phosphospecific antibody against Tyr-397-FAK (Invitrogen) at 1:5000. […] Autoradiographs were scanned and quantitated using ImageJ analysis software (NIH, Bethesda, Md.).

[3] = system: PTGS2 (which encodes the COX-2 enzyme); experiment: Matrix stiffness model: QRT-PCR of PTGS2; conditions: low and high stiffness, 1000 nM CARD-024
Experimental: as §1, §2

[4] = system: Ccd-18co colonic myofibroblasts; experiment: Matrix stiffness model: confocal immunofluorescence of focal adhesions (vinculin) and actin stress fibers (phalloidin); conditions: stiff substrate, 1000 nM CARD-024
Experimental: as §1, with “bottom. For the CARD-024 stiffness experiments, cells were plated as described above and serum-starved overnight prior to treatment with 1000 nM of CARD-024 diluted in 100% ethanol for 24 h. The 1000 nM CARD-024 dose was selected from the results of the TGFβ experiments.” for “bottom.”
Expression of activated myofibroblast markers was analyzed by confocal immunofluorescence microscopy using the Olympus FluoView™ FV500/IX system (Olympus America, Center Valley, Pa.) at the University of Michigan Microscopy and Image Analysis Laboratory. […]

IL-1β expression = experiment: Matrix stiffness model: QRT-PCR of IL-1β; conditions: 1000 nM CARD-024, relative to untreated/low stiffness
Experimental: as §1, §2

[5] = system: Ccd-18co colonic myofibroblasts; experiment: Matrix stiffness model: cell morphology, cell length and cell count (microscopy); conditions: for dendrite length: 1000 nM CARD-024, 24 h
Experimental: (§5) Cells were plated at 30-40% confluence. To stimulate a fibrotic phenotype, Ccd-18co cells were serum-starved for 24 h prior to treatment with 1 ng/ml TGFβ or 1 ng/ml TGFβ and increasing doses of CARD-024 (10-1000 nM) for 48 h. Given ethanol was used to dilute CARD-024, ethanol was added to the untreated and TGFβ treated cells to a final concentration of 0.1%. For stiffness experiments, low-passage number Ccd-18co cells were seeded at 1×10^5 cells/ml on 6-well plates containing collagen-coated acrylamide gels corresponding to soft (4.3 kPa, 0.02% bisacrylamide) or stiff (28.1 kPa, 0.16%) matrices. Cells were allowed to attach to the matrix for 4 h and then the gels were transferred to new wells to avoid paracrine signaling from cells attached to the plastic well bottom. For the CARD-024 stiffness experiments, cells were plated as described above and serum-starved overnight prior to treatment with 1000 nM of CARD-024 diluted in 100% ethanol for 24 h. The 1000 nM CARD-024 dose was selected from the results of the TGFβ experiments. Since ethanol was used to dilute CARD-024, ethanol was added to untreated cells to a final concentration of 0.1%.Experiments were performed on early (4 to 7) passage cells. Cultures were routinely assayed for mycoplasma contamination.
Collagen-coated polyacrylamide gels corresponding to physiological stiffnesses of 2.6 kPa to 28.1 kPa were generated using varying ratios of 40% acrylamide to 2% bisacrylamide (Bio-Rad, Hercules, Calif.) (Aplin and Hughes, 1981; Pelham and Wang, 1998). Specifically, an aqueous solution of 0.10% ammonium persulfate (Bio-Rad), 0.15% TEMED (Bio-Rad), 40% acrylamide solution was supplemented with 0.01%, 0.02%, 0.08%, or 0.16% bisacrylamide. The acrylamide gels were polymerized on a NaOH treated, amino-silanated (3-aminopropyltriethoxysilane), and glutaraldehyde treated 25 mm round glass coverslip. […] of each acrylamide/bisacrylamide solution was filter sterilized and pipetted unto a chloro-silanated glass surface treated with dichlorodimethylsilane (DCDMS) and a treated coverslip was inverted onto the acrylamide/biacrylamide solution. The acrylamide matrix was allowed to polymerize for 10 min between the two surfaces and transferred to a 6-well tissue culture plate containing sterile PBS. As determined by a series of stability experiments (data not shown), the acrylamide gels were stable for at least 1 month. […]
Cells were photographed using a Leica (Leica Microsystems Inc., Buffalo Grove, Ill.) DMIRB inverted microscope and photographed with an Olympus DP-30 camera (Center Valley, Pa.). Cell length was determined from photomicrographs using ImageJ (NIH, Bethesda, Md.). Cell count was determined from a minimum of 3 representative photographs of a 100× magnification field. […]

colA1 gene expression = experiment: Matrix stiffness model: expression of colA1; conditions: CARD-024 treatment
Experimental: as §5
(§6) Prior to seeding with colonic myofibroblasts, the acrylamide gels were collagen-coated. […]

[6] = system: αSMA protein expression in colonic myofibroblasts; experiment: Matrix stiffness model: αSMA protein expression (Western blot); conditions: high stiffness substrate, 1000 nM CARD-024
Experimental: as §1, with “matrices.” for “matrices. Cells were allowed to attach to the matrix for 4 h and then the gels were transferred to new wells to avoid paracrine signaling from cells attached to the plastic well bottom.”
as §3, §4

Fn-1 gene expression = experiment: Matrix stiffness model: expression of Fn-1; conditions: CARD-024 treatment
Experimental: as §5, §6

ET-1 gene expression = experiment: Matrix stiffness model: QRT-PCR of ET-1; conditions: high stiffness conditions, 1000 nM CARD-024
Experimental: as §1, §2

[7] = system: phosphorylation of focal adhesion kinase (FAK); experiment: Matrix stiffness model: pFAK protein expression (Western blot); conditions: high stiffness matrix, 1000 nM CARD-024
Experimental: as §1
pFAK was detected using a rabbit polyclonal phosphospecific antibody against Tyr-397-FAK (Invitrogen) at 1:5000. […] After washing, the membranes were incubated with the appropriate secondary antibody (anti-mouse IgG+HRP or anti-rabbit IgG+HRP, Amersham, Piscataway, N.J.) for 1 h at room temperature and the signal was detected by the Pierce detection system (Pierce, Rockford, Ill.). Autoradiographs were scanned and quantitated using ImageJ analysis software (NIH, Bethesda, Md.).

In the case of `C=C1/C(=C\C=C2/CCC[C@]3(C)[C@@H]([C@H](C)CC[C@@H](CC)C(C)C)CC[C@@H]23)C[C@@H](O)C[C@@H]1O` [CARD-024, (1S,3R)-(5Z,7E)-9,10-Secositosta-5,7,10(19)-triene-1,3-diol], the MLCK expression (MLCK gene expression) is reported as “significantly repressed MLCK expression to levels comparable to untreated cells on the low stiffness substrate”, the fibrogenic gene expression [1] is reported as “minimal impact on fibrogenic gene expression” and the “αSMA protein expression, dose response” value ([2]; Ccd-18co cells stimulated with TGFβ, 10-1000 nM CARD-024) is reported as “attenuated αSMA protein expression in a dose-responsive manner”. The “attenuation of αSMA protein expression” value ([2]; Ccd-18co cells, 1 ng/ml TGFβ, 1000 nM CARD-024, 48 h, normalized to GAPDH, p=0.012) was 2 fold, the PTGS2 expression [3] was “induced PTGS2 at both low and high stiffness” and the “focal adhesions (vinculin staining)” value [4] was “inhibited focal adhesion maturation”. For the same compound, the “induction of IL-1β expression” value (IL-1β expression; high stiffness, p=0.002) was 1.8 fold, the “induction of IL-1β expression” value (IL-1β expression; low stiffness) was 4 fold and the dendrite length ([5]; high stiffness (28.1 kPa) matrix) was 145 μm. The cell morphology ([5]; high stiffness substrate, 1000 nM CARD-024) was “repressed the effects of matrix stiffness on cell morphology”, the dendrite length ([5]; low stiffness (4.3 kPa) matrix) was 146 μm and the “reduction in cell number compared to untreated cells” value ([5]; stiff matrix (28.1 kPa), 1000 nM CARD-024, not significant) was 50%. The colA1 expression (colA1 gene expression) was “did not repress”, the αSMA expression [6] was “repressed αSMA expression on the high stiffness substrate to levels indistinguishable from the low stiffness substrate” and the Fn-1 expression (Fn-1 gene expression) was “did not repress”. The ET-1 expression (ET-1 gene expression) was “significantly repressed ET-1 expression in high stiffness conditions to levels indistinguishable from low stiffness conditions” and the FAK phosphorylation [7] was “inhibited FAK phosphorylation”.
